Laboratory results reported in patent publication US9850283B2, “Macrocyclic inhibitors of the PD-1/PD-L1 and CD80(B7-1)/PD-L1 protein/protein interactions” (BRISTOL-MYERS SQUIBB COMPANY, priority 2013, dated 2017).
pIC50: −log10 of the molar value. Like-named read-outs stand apart in the source and are kept apart here. Positions of bridges follow the written chain, without caps; N, C: chain ends. Non-standard residues stand in square brackets, D forms with d. Residues, ends and D or L forms follow the SMILES beside them. ξ: configuration not given here. Phe(3,4-(OMe)2) = COc1ccc(C[C@H](N)C(=O)O)cc1OC; Phe(3,4-Cl2) = N[C@@H](Cc1ccc(Cl)c(Cl)c1)C(=O)O; Phe(3-CF3) = N[C@@H](Cc1cccc(C(F)(F)F)c1)C(=O)O; Phe(4-CHF2) = N[C@@H](Cc1ccc(C(F)F)cc1)C(=O)O; Pro(trans-4-F) = O=C(O)[C@@H]1C[C@@H](F)CN1; Phe(3-Me) = Cc1cccc(C[C@H](N)C(=O)O)c1; Bta = N[C@@H](Cc1csc2ccccc12)C(=O)O; ξPro(4R-OH) = O=C(O)C1C[C@@H](O)CN1; Hyp = O=C(O)[C@@H]1C[C@@H](O)CN1; NMeF = CN[C@@H](Cc1ccccc1)C(=O)O; 2Pal = N[C@@H](Cc1ccccn1)C(=O)O; dNMeNle = CCCC[C@@H](NC)C(=O)O; NMehSer = CN[C@@H](CCO)C(=O)O; NMeNle = CCCC[C@H](NC)C(=O)O; NMeA = CN[C@@H](C)C(=O)O; Orn = NCCC[C@H](N)C(=O)O; Dab = NCC[C@H](N)C(=O)O; dAze = O=C(O)[C@H]1CCN1; Dap = NC[C@H](N)C(=O)O; ξPip = O=C(O)C1CCCCN1; ξC = NC(CS)C(=O)O; Sar = CNCC(=O)O

Legend:
Human PD-L1/PD-1 = target: T1, Human PD-L1/PD-1 (Homo sapiens, UniProt Q9NZQ7); assay: HTRF PD-1-Ig/PD-L1-His binding assay (human PD-L1)
T1 construct: made in house; host or cells: HEK293T
T1 sequence (Q9NZQ7 with tags, fused parts or gaps): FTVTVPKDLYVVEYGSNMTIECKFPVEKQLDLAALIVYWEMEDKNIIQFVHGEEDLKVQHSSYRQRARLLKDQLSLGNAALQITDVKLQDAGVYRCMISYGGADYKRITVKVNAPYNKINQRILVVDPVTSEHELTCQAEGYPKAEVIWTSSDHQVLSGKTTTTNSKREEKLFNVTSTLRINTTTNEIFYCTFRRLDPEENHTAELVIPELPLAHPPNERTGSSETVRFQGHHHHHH
Procedure, shortened: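 Soluble Fc-fused PD-1 and His-tagged PD-L1 (truncated before the transmembrane region) were combined in dPBS with 0.1% (w/v) BSA and 0.05% (v/v) Tween-20. Binding was read by HTRF using europium cryptate anti-Ig antibody (1 nM final) and APC anti-His antibody (20 nM final).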

[1] = target: T2, LK35.2-hPD-L1 cells / PE-labeled PD-1-Ig (Homo sapiens, UniProt Q9NZQ7); assay: LK35.2-hPD-L1 cell binding high-content screening assay; type: cell-based
T2 construct: expressed in transfected cells; host or cells: LK35.2 mouse B cell line
T2 sequence (Q9NZQ7 19-290): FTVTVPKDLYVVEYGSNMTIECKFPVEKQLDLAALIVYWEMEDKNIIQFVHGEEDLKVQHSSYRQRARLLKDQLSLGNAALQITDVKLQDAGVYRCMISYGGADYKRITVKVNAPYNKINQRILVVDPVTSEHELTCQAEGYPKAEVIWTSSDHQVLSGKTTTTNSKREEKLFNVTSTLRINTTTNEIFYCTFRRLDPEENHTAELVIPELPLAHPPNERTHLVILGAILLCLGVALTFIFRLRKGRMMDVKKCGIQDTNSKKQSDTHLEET
Procedure, shortened: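 Mouse LK35.2 B cells stably over-expressing human PD-L1, cultured overnight, treated with compound plus PE-labeled human PD-1-Ig (1 nM final) in RPMI/10% FCS for 1 h at 37 °C. After washing, bound fluorescence quantified by high-content imaging.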

[2] = cluster symbol, read-out: HTRF IC50 cluster
[3] = cell binding assay, cell line not given, cluster symbol, read-out: CBA IC50 cluster
[4] = cluster symbol, cell line of CBA not given (LK35.2-hPD-L1 or 293T-hPD-L1), read-out: CBA IC50 cluster

CCCC[C@H]1C(=O)N(C)[C@@H](CCCC)C(=O)N[C@@H](CCCNC(=N)N)C(=O)N[C@H](C(=O)NCC(N)=O)CSCC(=O)N[C@@H](Cc2cccc(C(F)(F)F)c2)C(=O)N(C)[C@@H](C)C(=O)N[C@@H](CC(N)=O)C(=O)N2CCC[C@H]2C(=O)N[C@@H](CN)C(=O)N[C@@H](CC(C)C)C(=O)N2C[C@H](O)C[C@H]2C(=O)N[C@@H](Cc2c[nH]c3ccccc23)C(=O)N[C@@H](CO)C(=O)N[C@@H](Cc2c[nH]c3ccccc23)C(=O)N1C [Example 7034] ({CH2CO}-[Phe(3-CF3)][NMeA]NP[Dap]L[Hyp]WSW[NMeNle][NMeNle]RCG-NH2; thioether N-14)
pIC50 (Human PD-L1/PD-1; [2]): 8.17 to 9.41 | pIC50 [1, 3]: 7.14 to 8.32

CCCC[C@H]1C(=O)N(C)[C@@H](CCCC)C(=O)N[C@@H](C(C)C)C(=O)N[C@H](C(=O)NCC(N)=O)CSCC(=O)N[C@@H](Cc2ccccc2)C(=O)N(C)[C@@H](C)C(=O)N[C@@H](CC(N)=O)C(=O)N2CCC[C@H]2C(=O)N[C@@H](Cc2cnc[nH]2)C(=O)N[C@@H](CC(C)C)C(=O)N(C)CC(=O)N[C@@H](Cc2c[nH]c3ccccc23)C(=O)N[C@@H](CO)C(=O)N[C@@H](Cc2c[nH]c3ccccc23)C(=O)N1C [Example 5016] ({CH2CO}-F[NMeA]NPHL[Sar]WSW[NMeNle][NMeNle]VCG-NH2; thioether N-14)
pIC50 (Human PD-L1/PD-1; [2]): 7.52 to 8.17 | pIC50 [1, 3]: 7.14 to 8.32

CCCC[C@@H]1C(=O)N(C)[C@H](CCCC)C(=O)N[C@@H](CCCNC(=N)N)C(=O)N[C@@H](C(=O)NCC(N)=O)CSCC(=O)N[C@@H](Cc2ccc(O)cc2)C(=O)N2CCCCC2C(=O)N[C@H](CCC(=O)O)C(=O)N2CCC[C@H]2C(=O)N[C@H](Cc2c[nH]cn2)C(=O)N[C@@H](CCCN)C(=O)N2C[C@H](O)CC2C(=O)N[C@H](Cc2c[nH]c3ccccc23)C(=O)N[C@@H](CO)C(=O)N[C@@H](Cc2c[nH]c3ccccc23)C(=O)N1C (stereo partly drawn) [Example 1217] ({CH2CO}-Y[ξPip][dE]P[dH][Orn][ξPro(4R-OH)][dW]SW[dNMeNle][dNMeNle]R[dC]G-NH2; thioether N-14)
pIC50 (Human PD-L1/PD-1; [2]): 7.52 to 8.17 | pIC50 [1, 4]: 7.14 to 8.32

CCCC[C@H]1C(=O)N(C)[C@@H](CCCC)C(=O)N[C@@H](CCN)C(=O)N[C@H](C(=O)NCC(N)=O)CSCC(=O)N[C@@H](Cc2ccc(O)cc2)C(=O)N(C)[C@@H](C)C(=O)N[C@@H](CC(N)=O)C(=O)N2CCC[C@H]2C(=O)N[C@@H](Cc2c[nH]cn2)C(=O)N[C@@H](CCC(=O)O)C(=O)N2C[C@H](F)C[C@H]2C(=O)N[C@@H](Cc2c[nH]c3ccccc23)C(=O)N[C@@H](CCN)C(=O)N[C@@H](Cc2c[nH]c3ccccc23)C(=O)N1C [Example 13001] ({CH2CO}-Y[NMeA]NPHE[Pro(trans-4-F)]W[Dab]W[NMeNle][NMeNle][Dab]CG-NH2; thioether N-14)
pIC50 (Human PD-L1/PD-1; [2]): 8.17 to 9.41 | pIC50 [1, 3]: 8.33 to 9.80

CCCC[C@H]1C(=O)N(C)[C@@H](CCCC)C(=O)N[C@@H](CCCNC(=N)N)C(=O)N[C@H](C(=O)NCC(N)=O)CSCC(=O)N[C@@H](Cc2ccccn2)C(=O)N(C)[C@@H](C)C(=O)N[C@@H](CC(N)=O)C(=O)N2CCC[C@H]2C(=O)N[C@@H](Cc2c[nH]cn2)C(=O)N[C@@H](CC(C)C)C(=O)N2C[C@H](O)C[C@H]2C(=O)N[C@@H](Cc2c[nH]c3ccccc23)C(=O)N[C@@H](CO)C(=O)N[C@@H](Cc2c[nH]c3ccccc23)C(=O)N1C [Example 7025] ({CH2CO}-[2Pal][NMeA]NPHL[Hyp]WSW[NMeNle][NMeNle]RCG-NH2; thioether N-14)
pIC50 (Human PD-L1/PD-1; [2]): < 7.52 | pIC50 [1, 3]: < 7.13

CCCC[C@H]1C(=O)N(C)[C@@H](CCOC)C(=O)N[C@@H](CCCNC(=N)N)C(=O)NC(C(=O)NCC(N)=O)CSCC(=O)N[C@@H](Cc2ccc(O)cc2)C(=O)N(C)[C@@H](C)C(=O)N[C@@H](CC(=O)O)C(=O)N2CCC[C@H]2C(=O)N[C@@H](Cc2cnc[nH]2)C(=O)N[C@@H](CC(C)C)C(=O)N2CCC[C@H]2C(=O)N[C@@H](Cc2c[nH]c3ccccc23)C(=O)N[C@@H](CO)C(=O)N[C@@H](Cc2csc3ccccc23)C(=O)N1C (some centres unmarked) [Example 9008] ({CH2CO}-Y[NMeA]DPHLPWS[Bta][NMeNle][NMehSer](Me)R[ξC]G-NH2; thioether N-14)
pIC50 (Human PD-L1/PD-1; [2]): 8.17 to 9.41 | pIC50 [1, 3]: 8.33 to 9.80

CCCC[C@H]1C(=O)N(C)CC(=O)N[C@@H](CC(=O)O)C(=O)N[C@@H](C(C)C)C(=O)N(C)[C@@H](Cc2ccccc2)C(=O)N[C@@H](Cc2ccc(O)cc2)C(=O)N(C)CC(=O)N[C@@H](Cc2c[nH]c3ccccc23)C(=O)N[C@@H](Cc2ccc(O)cc2)C(=O)N[C@@H](CC(C)C)C(=O)N[C@H](C(=O)NCC(N)=O)CSCC(=O)N[C@@H](Cc2ccccc2)C(=O)N(C)[C@@H](CCC(=O)O)C(=O)N1C [Example 3064] (HELM PEPTIDE1{[O=C(C[*:3])[*:2]].F.[meE].[CCCC[C@@H](C(=O)[*:2])N(C)[*:1]].[Sar].D.V.[meF].Y.[Sar].W.Y.L.C.G.[am]}$PEPTIDE1,PEPTIDE1,1:R3-14:R3$$$V2.0)
pIC50 (Human PD-L1/PD-1; [2]): 7.52 to 8.17 | pIC50 [1, 4]: < 7.13

CCCC[C@H]1C(=O)N(C)[C@@H](CCCC)C(=O)N[C@@H](CCCNC(=N)N)C(=O)N[C@H](C(=O)NCC(N)=O)CSCC(=O)N[C@@H](Cc2ccc(C(F)F)cc2)C(=O)N(C)[C@@H](C)C(=O)N[C@@H](CC(N)=O)C(=O)N2CCC[C@H]2C(=O)N[C@@H](Cc2cnc[nH]2)C(=O)N[C@@H](CC(C)C)C(=O)N2CCC[C@H]2C(=O)N[C@@H](Cc2c[nH]c3ccccc23)C(=O)N[C@@H](CO)C(=O)N[C@@H](Cc2csc3ccccc23)C(=O)N1C [Example 1044] ({CH2CO}-[Phe(4-CHF2)][NMeA]NPHLPWS[Bta][NMeNle][NMeNle]RCG-NH2; thioether N-14)
pIC50 (Human PD-L1/PD-1; [2]): < 7.52 | pIC50 [1, 4]: < 7.13

CCCC[C@H]1C(=O)N(C)CC(=O)N[C@@H](CC(=O)O)C(=O)N[C@@H]([C@@H](C)CC)C(=O)N(C)[C@@H](Cc2ccccc2)C(=O)N[C@@H](Cc2ccc(O)cc2)C(=O)N(C)CC(=O)N[C@@H](Cc2c[nH]c3ccccc23)C(=O)N[C@@H](Cc2ccc(O)cc2)C(=O)N[C@@H](CC(C)C)C(=O)N[C@H](C(=O)NCC(N)=O)CSCC(=O)N[C@@H](Cc2ccccc2)C(=O)N(C)[C@@H](Cc2ccccc2)C(=O)N1C [Example 3149] (HELM PEPTIDE1{[O=C(C[*:3])[*:2]].F.[meF].[CCCC[C@@H](C(=O)[*:2])N(C)[*:1]].[Sar].D.I.[meF].Y.[Sar].W.Y.L.C.G.[am]}$PEPTIDE1,PEPTIDE1,1:R3-14:R3$$$V2.0)
pIC50 (Human PD-L1/PD-1; read-out: HTRF IC50 value): 7.52 | pIC50 ([1]; cell line of CBA not given (LK35.2-hPD-L1 or 293T-hPD-L1), read-out: CBA IC50 value): 8.05

CCCC[C@H]1C(=O)N(C)[C@@H](CCCC)C(=O)N[C@@H](CCCNC(=N)N)C(=O)N[C@H](C(=O)NCC(N)=O)CSCC(=O)N[C@@H](Cc2ccc(Cl)c(Cl)c2)C(=O)N(C)[C@@H](C)C(=O)N[C@@H](CC(N)=O)C(=O)N2CCC[C@H]2C(=O)N[C@@H](CN)C(=O)N[C@@H](CC(C)C)C(=O)N2C[C@H](O)C[C@H]2C(=O)N[C@@H](Cc2c[nH]c3ccccc23)C(=O)N[C@@H](CO)C(=O)N[C@@H](Cc2c[nH]c3ccccc23)C(=O)N1C [Example 7063] ({CH2CO}-[Phe(3,4-Cl2)][NMeA]NP[Dap]L[Hyp]WSW[NMeNle][NMeNle]RCG-NH2; thioether N-14)
pIC50 (Human PD-L1/PD-1; [2]): 8.17 to 9.41 | pIC50 [1, 3]: 7.14 to 8.32

CCCC[C@H]1C(=O)N(C)[C@@H](CCCC)C(=O)N[C@@H](CCCNC(=N)N)C(=O)N[C@H](C(=O)NCC(N)=O)CSCC(=O)N[C@@H](Cc2ccccc2)C(=O)N(C)[C@@H](C)C(=O)N[C@@H](CC(N)=O)C(=O)N2CCC[C@H]2C(=O)N[C@@H](Cc2cnc[nH]2)C(=O)N[C@@H](CC(C)C)C(=O)N(C)CC(=O)N[C@@H](Cc2ccc(OC)c(OC)c2)C(=O)N[C@@H](CO)C(=O)N[C@@H](Cc2c[nH]c3ccccc23)C(=O)N1C [Example 1080] ({CH2CO}-F[NMeA]NPHL[Sar][Phe(3,4-(OMe)2)]SW[NMeNle][NMeNle]RCG-NH2; thioether N-14)
pIC50 (Human PD-L1/PD-1; [2]): < 7.52 | pIC50 [1, 4]: < 7.13

CCCC[C@H]1C(=O)N(C)[C@@H](CCCC)C(=O)N[C@@H](CCCNC(=N)N)C(=O)N[C@H](C(=O)NCC(N)=O)CSCC(=O)N[C@@H](Cc2ccccc2)C(=O)N(C)[C@@H](C)C(=O)N[C@@H](CC(N)=O)C(=O)N2CCC[C@H]2C(=O)N[C@@H](Cc2cnc[nH]2)C(=O)N[C@@H](CC(C)C)C(=O)N(C)CC(=O)N[C@@H](Cc2cccc(C)c2)C(=O)N[C@@H](CO)C(=O)N[C@@H](Cc2c[nH]c3ccccc23)C(=O)N1C [Example 1086] ({CH2CO}-F[NMeA]NPHL[Sar][Phe(3-Me)]SW[NMeNle][NMeNle]RCG-NH2; thioether N-14)
pIC50 (Human PD-L1/PD-1; [2]): < 7.52 | pIC50 [1, 4]: < 7.13

CCCC[C@H]1C(=O)N2CC[C@@H]2C(=O)N[C@@H](CC(=O)O)C(=O)N[C@@H](C(C)C)C(=O)N(C)[C@@H](Cc2ccccc2)C(=O)N[C@@H](Cc2ccc(O)cc2)C(=O)N(C)CC(=O)N[C@@H](Cc2c[nH]c3ccccc23)C(=O)N[C@@H](Cc2ccc(O)cc2)C(=O)N[C@@H](CC(C)C)C(=O)N[C@H](C(=O)NCC(N)=O)CSCC(=O)N[C@@H](Cc2ccccc2)C(=O)N(C)[C@@H](Cc2ccccc2)C(=O)N1C [Example 3582] ({CH2CO}-F[NMeF][NMeNle][dAze]DV[NMeF]Y[Sar]WYLCG-NH2; thioether N-13)
pIC50 (Human PD-L1/PD-1; [2]): 7.52 to 8.17 | pIC50 [1, 3]: 7.14 to 8.32
